Test results taken from patent US6413539B1, “Hydrogel-forming, self-solvating absorbable polyester copolymers, and methods for use thereof” (Poly-Med, Inc., priority 1996, dated 2002).

Assay: Binding of acidic organic drugs to anion-exchanger
Type: physicochemical
Conditions: sodium salt of drug; anion-exchanger of Example XIII
Description: The preparation of the anion-exchanger is achieved in two steps. […] In the second step, the practically non-ionic microparticles are incubated in hot dilute solution (^˜80° C.) of hexanediamine of known concentration in dioxane under argon for 2-4 hours. The concentration of the diamine in dioxane is determined by acidimetry. When the reaction practically ceases to take place, the aminated microparticles are separated by filtration, rinsed with dioxane, and dried under reduced pressure. The binding capacity of the anion-exchanger (aminated particles) is determined by (1) elemental analysis for nitrogen and (2) extent of binding to naproxin by measuring the extent of drug removed from a dilute solution using HPLC. The latter is confirmed by release of the immobilized naproxin with a dilute sodium hydroxide solution of known concentration.
Typical examples of acidic organic drugs that are available as sodium salt are ganciclovir, naproxin, and ibuprofen. In typical experiments, the aforementioned drugs are bound to the anion-exchanger of Example XIII following a similar scheme to that used in the same example describing the binding of naproxin.

In order of rising “% Drug bound to anion-exchanger” value:
1. Nc1nc(O)c2ncn(COC(CO)CO)c2n1 [Ganciclovir, ganciclovir]  6%
2. CC(C)Cc1ccc(C(C)C(=O)O)cc1 (stereo not drawn) [Ibuprofen, ibuprofen]  8%
3. COc1ccc2cc([C@H](C)C(=O)O)ccc2c1 [Naproxin, naproxin]  11%
